Laboratory results taken from patent US9750723B2, “Prevention and treatment of non-alcoholic fatty liver disease” (Ohio University, priority 2014, dated 2017).

What was measured:
C57BL/6J mice on the HFD = assay: Evaluation of phenylmethimazole in preventing NAFLD in mice (Example 2); format: in vivo
Protocol: Triglycerides were quantified in accordance with the following general protocol, based upon the Salmon and Flatt Method of Liver Saponification. 50-100 mg of liver tissue was placed into an Eppendorf tube and weighed. Equal volume per weight of 3 M KOH (in 65% EtOH) was added to the tube and vortexed. The tube was placed at 70° C. for 1 hr to activate digestion. The tubes were vortexed every 15 minutes. The tube was set at room temperature overnight to allow for complete digestion, and was vortexed periodically. The sample was diluted to a final concentration of 100 mg of liver tissue per 600 μl fluid; the sample was diluted by adding 2 M Tris-HCl (un-pHed) to a final concentration of 50 mM. Where a second dilution was required, the sample was diluted using 50 mM Tris-HCl (pH 7.5). Triglycerides-GPO (0.5 mL, liquid; Pointe Scientific Cat. No. T7532-500; Fisher Scientific, Pittsburgh, Pa.) were aliquoted into Eppendorf tubes and warmed in a 37° C. water bath for 5-10 minutes. Glycerol standards (0, 1, 2.5, 5, 7.5 and 10 mmol/L) were made by diluting 10 mmol/L stock of glycerol, such as, e.g., with 50 mM Tris-HCl. 5 μL of the sample and glycerol standards (0, 1, 2.5, 5, 7.5 and 10 mmol/L) were added to 0.5 mL of the triglycerides-GPO, mixed, and incubated at room temperature for 5 minutes. The mixture was then vortexed and added (200 μL) to each well of a 96-well flat-bottom ELISA plate (in duplicate). Absorbance (i.e., optical density) was read at 500 nm. The concentrations of the samples were determined via use of a plot of glycerol standards concentration (mmol/L) with respect to optical density (i.e., O.D.) at 500 nm. The concentration of glycerol (mg glycerol/g tissue) was then calculated and triglyceride concentration was determined, in accordance with calculations known to those of ordinary skill in the art.
Experimental Protocol. 7 week old male C57BL/6J mice were placed on either a LFD (i.e., having a fat content of 10%, N=8) or a HFD (i.e., having a fat content of 60%, N=40). The mice placed on the LFD served as a control. […]
After 18 weeks, all of the C57BL/6J mice were euthanized. […] More specifically, NAFLD was evaluated in the liver tissue of the euthanized C57BL/6J mice microscopically and molecularly. Following euthanasia, the liver of each mouse was removed and divided, wherein one portion was used for the microscopic analysis of NAFLD and another portion was used for the molecular analysis of NAFLD (i.e., quantification of triglycerides). Quantification of triglycerides was performed in accordance with the general protocol described in Example 1.

[1] = test system: C57BL/6J mice placed on an HFD; assay: Evaluation of phenylmethimazole in treating NAFLD in C57BL/6J mice fed high fat diet (Example 3); format: in vivo; conditions: HFD mice with NAFLD, ip once daily 1, 3 or 10 mg/kg/day for 16 weeks (up to 24 weeks); contemplated result
Protocol: Experimental Protocol. C57BL/6J mice are placed on an HFD containing 60% fat (by % Kcal) (Diet #D12492, Research Diets, Inc.) for a period of weeks (as determined by the results of Example 1) until development of NAFLD is observed and clearly distinguishable from LFD-fed mice of the same age (between 4-8 weeks). At the time or after NAFLD is observed, once daily ip injections of phenylmethimazole (i.e., C10), DMSO, or sham are administered. 5 mice are then euthanized weekly thereafter to characterize the effects of C10, DMSO, and/or sham on treatment of NAFLD for the period of 16 weeks post-initiation of C10, DMSO, and sham administration. The period of time for which treatment is administered will be extended to 24 weeks if no effect of C10 administration on treatment of NAFLD is observed. The following Table further illustrates the experimental design: […]
NAFLD is evaluated in the liver of the HFD mice macroscopically, microscopically, and molecularly. […] Then, the liver of each mouse is split in half, wherein one half is used for microscopic analysis of NAFLD and the remaining half is used for molecular analysis of NAFLD (i.e., quantification of triglycerides). Quantification of triglycerides is performed in accordance with the general protocol described in Example 1.

[2] = test system: patient at risk for developing NAFLD; assay: Therapeutic use of phenylmethimazole to prevent development of NAFLD (Example 4); format: in vivo, human; conditions: once daily oral dose of 1 mg/kg chronically, contemplated result
Protocol: Experimental Protocol. A patient at risk for developing NAFLD is prescribed phenylmethimazole to prevent excess accumulation of fat. The patient takes a once daily oral dose of 1 mg/kg of body weight of phenylmethimazole chronically, during which fat content in the liver is determined via liver function testing, liver ultrasound, and liver biopsy.

patient having NAFLD = assay: Therapeutic use of phenylmethimazole to treat NAFLD (Example 5); format: in vivo, human; conditions: once daily oral dose of 3 mg/kg for 16 weeks, contemplated result
Protocol: Experimental Protocol. A patient having NAFLD is prescribed phenylmethimazole to reduce the fat content in their liver. After determination of a baseline level of fat content in their liver, the patient takes a once daily oral dose of 3 mg/kg of body weight of phenylmethimazole for a period of 16 weeks, during which fat content in their liver tissue is determined via liver function testing, liver ultrasound, and liver biopsy.

Cn1c(-c2ccccc2)cnc1S [phenylmethimazole, 5-Phenylmethimazole]
fatty liver disease, macroscopically observed in liver tissue (C57BL/6J mice on the HFD; ip 0.1 mg/kg, 1 mg/kg or 10 mg/kg once daily for 18 weeks, compared to HFD mice with sham injection or DMSO): much less fatty liver disease despite obesity | triglyceride concentration in liver tissue (FIG. 4) (C57BL/6J mice on the HFD; ip 1 mg/kg or 10 mg/kg once daily for 18 weeks, compared to HFD mice with no phenylmethimazole): lower triglyceride concentration | prevention of NAFLD (C57BL/6J mice on the HFD; ip 0.1, 1, 10 mg/kg once daily for 18 weeks): prevented NAFLD in the mice fed the HFD in a dose-dependent manner | fatty liver disease, microscopic observation of liver tissue (FIG. 3(B)-(D)) (C57BL/6J mice on the HFD; ip 0.1, 1 or 10 mg/kg once daily for 18 weeks, compared to HFD mice with sham injection or DMSO): much less fatty liver disease | fat content in the liver tissue of the mice [1]: reduced relative to a baseline level | excess accumulation of fat in the liver [2]: no excess accumulation of fat has occurred | fat content in the patient's liver (patient having NAFLD): reduced relative to the baseline level
